Laboratory results from US20130158113A1, “METHODS AND COMPOSITIONS FOR TREATING BRAIN CANCER” (Golden Biotechnology Corporation, priority 2011, published 2013).
≈ marks a conversion by molar mass, not a printed value. Where “and” joins values, the source holds several entries; their conditions need not be identical. Equal entries are not always repeated.

How the values were obtained:
SK-N-MC cells = assay: MTT survival assay on SK-N-MC brain cancer cells; assay type: cell-based; conditions: Homo sapiens, 48 hours
Protocol: The NCI anti-cancer drug screen model was adopted to test anti-cancer effect of the exemplary compounds from Example 1. The isolated compound 1 from Example 1 was added into the culture media of brain-cancer cells, SK-N-MC, to test for tumor cell survival by MTT assay.
(§1) MTT assay is commonly used to determine cell proliferation, percent of viable cells, and cytotoxicity. MTT (3-[4,5-dimethylthiazol-2-yl]2,5-diphenyltetrazolium bromide) is a yellow dye, which can be absorbed by the living cells and be reduced to purplish blue formazan crystals by succinate tetrazolium reductase in mitochondria. Formazan formation can therefore be used to assess and determine the survival rate of cells.
SK-N-MC cells were suspended and cultured in 10% fetal bovine serum (Life Technologies Inc.) culture medium containing 1% penicillin and 1% streptomycin. The cells were incubated under 5% CO2, 37° C. for 24 hours. After cell proliferation, the cells were washed once with PBS, treated with the trypsin-EDTA, and then centrifuged at 1,200 rpm for 5 minutes to separate cells from supernatant. The cells were re-suspended in fresh culture medium (10 mL) and placed in 96 well plates.
(§2) To each of the 96 well plates containing SK-N-MC, 0.003, 0.01, 0.03, 0.1, and 0.3 μg/ml of compound 1 were add. The 96 well plates were incubated at 37° C., 5% CO2 for 48 hours. Subsequently, in the dark environment to each well of the plates were added 2.5 mg/ml of MTT. The reaction was terminated by addition of 100 μl of lysis buffer after 4 hours. The survival rate of cells was calculated based on the measurement of absorption at the 570 nm wavelength by enzyme immunoassay analyzer. The half maximal inhibitory concentration (IC50) values of compound 1 on SK-N-MC was 0.05 μg/mL. Similarly, another exemplary cancer cell lines, U373MG, were used.

U373MG = assay: MTT survival assay on U373MG cancer cells; assay type: cell-based; conditions: Homo sapiens, U373 MG, read-out: half maximal inhibitory concentration (IC50)
Source text: as §1, §2

[1] = Determination of Compound 1 in mice brain by LC/MS/MS; assay type: in vivo; conditions: male CD-1 mice fed 1 mg/g in 0.5% methylcellulose, brain removed after 15 minute; individual brains 1-3
Protocol: The concentration of compound 1 in brain samples was analyzed by LC/MS/MS spectrometer. Experiments were performed on male CD-1 derived mice weighing 24±2 g (Biolasco Taiwan). The CD-1 mice were fed with 1 mg/g Compound 1 in 0.5% methylcellulose (concentration is 2 mg/mL). The brains of the CD-1 mice were removed after 15 minute and extracted with CH3CN and then centrifuged to prepare supernatant that was analyzed by LC/MS/MS.

Q: With COC1=C(OC)C(O)C(C/C=C(\C)CC/C=C(\C)CCC=C(C)C)C(C)C1=O (centres unmarked) [Compound 1, 4-hydroxy-2,3-dimethoxy-6-methyl-5-(3,7,11-trimethyldodeca-2,6,10-trienyl)cyclohex-2-enone] as the molecule, how does the viability at 0.003 µg/mL (SK-N-MC cells; 0.003 μg/ml, read-out: Cell viability rate mean) read?
A: 86.3%

Q: What about the viability at 0.01 µg/mL (SK-N-MC cells; 0.01 μg/ml, read-out: Cell viability rate mean) of the same molecule?
A: 76.6%

Q: What about the viability at 0.03 µg/mL (SK-N-MC cells; 0.03 μg/ml, read-out: Cell viability rate mean) of the same molecule?
A: 63.2%

Q: What about the viability at 0.1 µg/mL (SK-N-MC cells; 0.1 μg/ml, read-out: Cell viability rate mean) of the same molecule?
A: 32.9%

Q: What about the viability at 0.3 µg/mL (SK-N-MC cells; 0.3 μg/ml, read-out: Cell viability rate mean) of the same molecule?
A: 23%

Q: And the IC50 (SK-N-MC cells; read-out: half maximal inhibitory concentration (IC50))?
A: 0.05 µg/mL (≈ 0.128 µM)

Q: What about the IC50 (U373MG) of the same molecule?
A: 5.88 µg/mL (≈ 15.1 µM)

Q: What about the Brain concentration [1] of the same molecule?
A: 30.13 µg/g and 7.59 µg/g and 24.28 µg/g
